Laboratory results: publication doi:10.1101/2022.08.09.503277v2 (biorxiv, 2022)

Target: ECD-AT1G56145 (IGP1) (Arabidopsis thaliana, UniProt F4I3K3)
Experiment: isothermal titration calorimetry
Format: binding
Conditions: 20 mM sodium citrate pH 5.0, 150 mM NaCl, 25 °C; single site, N fixed to 1

Kd [µM]	SMILES
1.19 ± 0.03	OC[C@H]1O[C@@H](O[C@H]2[C@H](O)[C@@H](O)[C@H](O[C@H]3[C@H](O)[C@@H](O)C(O)O[C@@H]3CO)O[C@@H]2CO)[C@H](O)[C@@H](O)[C@@H]1O (some centres unmarked) [CEL3]
1.4 ± 0.01	OC[C@H]1O[C@@H](O[C@H]2[C@H](O)[C@@H](O)[C@H](O[C@H]3[C@H](O)[C@@H](O)[C@H](O[C@H]4[C@H](O)[C@@H](O)[C@H](O[C@H]5[C@H](O)[C@@H](O)C(O)O[C@@H]5CO)O[C@@H]4CO)O[C@@H]3CO)O[C@@H]2CO)[C@H](O)[C@@H](O)[C@@H]1O (some centres unmarked) [CEL5]
